Data published in publication PMC11859905, “Flavonoids as Potential Modulators of Pancreatic Lipase Catalytic Activity” (Pharmaceutics, 2025).
Like-named read-outs stand apart in the source and are kept apart here.

Legend:
human pancreatic lipase = target: T1, human pancreatic lipase (Homo sapiens, UniProt P16233); experiment: In vitro assay using human pancreatic lipase (4-MUO hydrolysis, fluorometric); assay type: biochemical; details: for inhibitory activity against HPL (in words): at the maximum concentration that could be tested; for IC50: human PL 2 U/mL, 4-MUO 0.05 mM, mean ± SEM;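 on all read-outs here: Read-out is the initial rate of fluorescent 4-MU release as HPL cleaves the 4-MUO substrate, a rate that scales with the amount of enzyme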
T1 construct: PL from the human pancreas (triacylglycerol acyl hydrolase, EC 3.1.1.3); from tissue; host or cells: human pancreas
T1 sequence (P16233 17-465): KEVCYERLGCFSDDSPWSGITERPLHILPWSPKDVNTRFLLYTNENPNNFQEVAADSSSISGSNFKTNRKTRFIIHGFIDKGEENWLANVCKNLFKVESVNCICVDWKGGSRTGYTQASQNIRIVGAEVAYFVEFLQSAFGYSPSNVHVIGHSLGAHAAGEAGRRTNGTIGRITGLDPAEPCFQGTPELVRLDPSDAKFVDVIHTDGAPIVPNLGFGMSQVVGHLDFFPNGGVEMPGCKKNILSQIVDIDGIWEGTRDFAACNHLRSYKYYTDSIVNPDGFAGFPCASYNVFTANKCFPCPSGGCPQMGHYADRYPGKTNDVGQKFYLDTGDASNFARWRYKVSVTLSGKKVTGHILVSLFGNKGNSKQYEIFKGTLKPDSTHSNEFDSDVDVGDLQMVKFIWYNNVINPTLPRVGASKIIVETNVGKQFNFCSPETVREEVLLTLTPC

[1] = target: T2, porcine pancreatic lipase (Sus scrofa, UniProt P00591); experiment: In vitro assay using porcine pancreatic lipase (4-MUO hydrolysis, fluorometric); details: for inhibitory activity against PPL (in words): at the maximum concentration that could be tested;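 on all read-outs here: product 4-methylumbeliferone formation tracked fluorometrically, catalytic rate from RFU slope over the 10–30 min window, compounds checked beforehand for own fluorescence, at least three independent experiments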
T2 sequence (P00591 1-450): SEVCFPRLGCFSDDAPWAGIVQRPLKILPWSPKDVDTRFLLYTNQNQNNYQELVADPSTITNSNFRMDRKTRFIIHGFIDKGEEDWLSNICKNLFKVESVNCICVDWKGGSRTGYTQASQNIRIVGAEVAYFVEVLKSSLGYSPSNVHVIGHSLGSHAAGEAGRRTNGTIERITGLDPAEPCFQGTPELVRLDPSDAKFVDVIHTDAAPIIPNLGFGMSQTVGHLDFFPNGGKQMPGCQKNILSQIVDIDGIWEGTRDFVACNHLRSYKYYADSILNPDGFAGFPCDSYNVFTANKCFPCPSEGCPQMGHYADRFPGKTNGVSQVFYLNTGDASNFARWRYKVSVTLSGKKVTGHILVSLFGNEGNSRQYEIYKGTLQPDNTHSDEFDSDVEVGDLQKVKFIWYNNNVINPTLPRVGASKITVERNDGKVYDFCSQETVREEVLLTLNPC

[2] = target: T2, porcine pancreatic lipase; experiment: Inhibition kinetics of porcine pancreatic lipase (nonlinear regression, Solver); assay type: biochemical; parameters: compare it to the effects of the porcine pancreas (type II, EC 3.1.1.3); from tissue; host or cells: porcine pancreas (type II preparation); details: porcine pancreatic lipase
[3] = at 50 μM, read-out: PL Inhibition (%) ± SEM, Human
[4] = read-out: PL Inhibition (%) ± SEM, Porcine
[5] = read-out: PL Inhibition (%) ± SEM, Human
[6] = read-out: PL Inhibition (%) ± SEM, Human, at 50 μM

Row | SMILES | inhibition at 50 µM (human pancreatic lipase; [3]) [%] | inhibition at 50 µM [1, 4] [%] | inhibitory activity against HPL (in words) (human pancreatic lipase) | inhibitory activity against PPL (in words) [1] | other results
1 | O=c1c(O[C@@H]2O[C@H](CO)[C@@H](O)[C@H](O)[C@H]2O)c(-c2ccc(O)cc2)oc2cc(O)cc(O)c12 [Flavonoid 25, Astragalin] | 34 ± 1 | < 30 | did not show significant inhibitory activity | did not show significant inhibitory activity | –
2 | O=c1c(O)c(-c2ccc(O)cc2)oc2cc(OC3OC(CO)C(O)C(O)C3O)cc(O)c12 (stereo not shown) [Flavonoid 26, Populnin] | – | – | did not show significant inhibitory activity | did not show significant inhibitory activity | inhibition at 100 µM (human pancreatic lipase; [5]): < 30%; inhibition at 100 µM [1, 4]: < 30%
3 | O=c1c(O)c(-c2ccc(O)c(O)c2)oc2cc(O)cc(O)c12 [Flavonoid 27, Quercetin] | – | – | – | – | inhibition at 75 µM (human pancreatic lipase; read-out: PL Inhibition (%) ± SEM, Human, at 75 μM): < 46%; Inhibition Model [2]: Competitive; Vmax ([2]; ± SEM, in µmol/min): 354 ± 3
4 | CCCCc1c(-c2ccc(O)c(O)c2)oc2cc(O)cc(O)c2c1=O [Flavonoid 28] | – | – | – | – | IC50 (human pancreatic lipase): 42 ± 2 µM; IC50 [1]: 13 ± 1 µM
5 | CCCCCCc1c(-c2ccc(O)c(O)c2)oc2cc(O)cc(O)c2c1=O [Flavonoid 29] | – | – | – | – | IC50 (human pancreatic lipase): 16.4 ± 0.7 µM; IC50 [1]: 10.1 ± 0.4 µM
6 | O=c1c(O)c(-c2ccc(O)c(O)c2)oc2cc(O[C@@H]3O[C@H](CO)[C@@H](O)[C@H](O)[C@H]3O)cc(O)c12 [Flavonoid 33, Quercimeritrin] | < 30 | < 30 | did not show significant inhibitory activity | did not show significant inhibitory activity | –
7 | O=c1c(OC2OC(CO)C(O)C(O)C2O)c(-c2ccc(OC3OC(CO)C(O)C(O)C3O)c(O)c2)oc2cc(O)cc(O)c12 (stereo not shown) [Flavonoid 35] | – | < 30 | did not show significant inhibitory activity | did not show significant inhibitory activity | inhibition at 50 µM (human pancreatic lipase; [6]): < 30%
8 | O=c1cc(-c2cc(O)c(O)c(O)c2)oc2cccc(O)c12 [Flavonoid 36] | – | – | – | – | IC50 (human pancreatic lipase): 7 ± 1 µM; IC50 [1]: 20 ± 3 µM
9 | Oc1cc(O)c2c(c1)O[C@H](c1ccc(O)c(O)c1)[C@H](O)C2 [Flavonoid 39, (–)-Epicatechin] | – | – | – | – | inhibition at 100 µM (human pancreatic lipase; [5]): < 30%; inhibition at 100 µM [1, 4]: < 30%
10 | O=c1cc(-c2ccccc2)oc2c(O)c(O)cc(O)c12 [Flavonoid 42, Norwogonin] | – | – | – | – | IC50 (human pancreatic lipase): 79 ± 3 µM; IC50 [1]: 98 ± 9 µM
11 | O=c1c(O)c(-c2ccc(O)cc2)oc2c(O)c(O)ccc12 [Flavonoid 44] | < 30 | 42 ± 2 | – | – | –
12 | O=c1c(O)c(-c2ccc(O)c(O)c2)oc2c(O)c(O)ccc12 [Flavonoid 45, Melanoxetin] | – | – | – | – | inhibition at 25 µM (human pancreatic lipase; at 25 μM, read-out: PL Inhibition (%) ± SEM, Human): < 30%; inhibition at 25 µM [1, 4]: < 30%
13 | O=c1c(O)c(-c2ccc(O)c(O)c2)oc2c(O)c(O)cc(O)c12 [Flavonoid 47, Gossypetin] | – | 36 ± 3 | – | – | inhibition at 50 µM (human pancreatic lipase; [6]): 37 ± 1%
14 | O=c1c(O)c(-c2ccc(O)c(O)c2)oc2c(O[C@@H]3O[C@H](CO)[C@@H](O)[C@H](O)[C@H]3O)c(O)cc(O)c12 [Flavonoid 48, Gossypin] | – | – | did not show significant inhibitory activity | did not show significant inhibitory activity | inhibition at 12.5 µM (human pancreatic lipase; at 12.5 μM, read-out: PL Inhibition (%) ± SEM, Human): < 30%; inhibition at 12.5 µM [1, 4]: < 30%

Continued, in another order:

Row | inhibition at 50 µM (human pancreatic lipase; [3]) [%] | inhibition at 50 µM [1, 4] [%] | SMILES | inhibitory activity against HPL (in words) (human pancreatic lipase) | inhibitory activity against PPL (in words) [1] | other results
15 | < 30 | < 30 | O=c1c(OC2OC(CO)C(O)C(O)C2O)c(-c2ccc(O)c(O)c2)oc2cc(O)cc(O)c12 (stereo not shown) [Flavonoid 31] | did not show significant inhibitory activity | did not show significant inhibitory activity | –
16 | 34 ± 1 | < 30 | C[C@@H]1O[C@@H](OC[C@H]2O[C@@H](Oc3c(-c4ccc(O)c(O)c4)oc4cc(O)cc(O)c4c3=O)[C@H](O)[C@@H](O)[C@@H]2O)[C@H](O)[C@H](O)[C@H]1O [Flavonoid 32, Rutin] | did not show significant inhibitory activity | did not show significant inhibitory activity | –
17 | < 30 | < 30 | O=c1c(O)c(-c2ccc(O[C@@H]3O[C@H](CO)[C@@H](O)[C@H](O)[C@H]3O)c(O)c2)oc2cc(O)cc(O)c12 [Flavonoid 34, Spiraeoside] | did not show significant inhibitory activity | did not show significant inhibitory activity | –
18 | < 30 | < 30 | O=c1cc(-c2ccc(O)c(O)c2)oc2c(O)c(O)ccc12 [Flavonoid 43] | – | – | –
19 | 39 ± 3 | 46 ± 4 | O=c1c(O)c(-c2ccc(O)cc2)oc2c(O)c(O)cc(O)c12 [Flavonoid 46, Herbacetin] | – | – | –
